PubChem BioAssay (NCI)
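Compound exposure: 48 hours, 5 concentrations, 96-well plates. The concentration for 50% growth inhibition is given as GI50. TGI marks complete inhibition of growth.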

What follows are molecules tested on SK-MEL-5 melanoma (assay: NCI tumour cell line growth inhibition, 48 h).
Molecule `O=Cc1cc2c(cc1-c1cc3c(cc1C=O)OCO3)OCO2` has a TGI greater than 100 µM. `C/C(=N\NC(N)=O)c1sc(-c2nc(C)c(/C(C)=N/NC(N)=O)s2)nc1C` gave a TGI greater than 100 µM. Molecule `CN(C)CCNC(=O)Cc1ccccc1Nc1c(Cl)cccc1Cl` has a TGI of 30.2 µM. `C[N+](C)(C)CC(=O)N/N=C(/Cc1cc(=O)oc2cc(O)ccc12)C(=O)Nc1ccc(Cl)cc1` was tested, and the TGI was greater than 100 µM. Work on `COC(=O)c1c2c(c(C)[n+]([O-])c1C)C(=O)C(NCc1ccc(Br)cc1)=CC2=O` yielded a GI50 of 0.867 µM and a TGI of 2.11 µM. Work on `O=S(=O)(OI(OI(OS(=O)(=O)C(F)(F)F)c1ccccc1)c1ccccc1)C(F)(F)F` yielded a TGI of 85.4 µM. For `COc1cc(OC)c(OC)cc1/C=N/NC(=O)N/N=C/c1cc(OC)c(OC)cc1OC`, the TGI was greater than 100 µM. `O=C(O)c1ccc(CNCc2ccccc2)cc1` showed a TGI greater than 100 µM. Work on `Cc1cc2c(cc1C)[n+](=O)cc(C(=O)C/C(=N/NC(=S)NN)C(=O)Nc1cccc(C(F)(F)F)c1)n2[O-]` yielded a TGI greater than 100 µM. `COCOCCC#CCO` gave a TGI greater than 100 µM. Molecule `COc1cc(C[P+](c2ccccc2)(c2ccccc2)c2ccccc2)cc(OC)c1OC` has a TGI greater than 100 µM. `CCCN(CCC)c1c([N+](=O)[O-])cc(C(=O)N(CC)CC)cc1[N+](=O)[O-]` was tested, and the TGI was 26.8 µM. `CN1Nc2ccccc2CC1=O` showed a TGI greater than 100 µM. In the case of `CCOc1ccc(OCC(=O)O)c2c1CCCC2=O`, the TGI was greater than 100 µM. With `Nc1c(S(=O)(=O)c2ccc(Cl)cc2)c2nc3ccccc3nc2n2ccnc12` the TGI was greater than 100 µM. `CCCCCCCC(=O)OCC1OC(n2cc(F)c(=O)[nH]c2=O)C(N)C(OC(=O)CCCCCCC)C1O` (stereo not given) was tested, and the TGI was 22.3 µM. `CCOc1ccc(NC(=O)CC2SC(=Nc3ccc(C)cc3C)NC2=O)cc1` (stereo not given) showed a TGI greater than 100 µM. `Cc1nc2c(N)ncnc2o1` was tested, and the TGI was greater than 100 µM. Work on `O=C1C/C(Br)=C\c2ccccc2-c2ccccc21` yielded a TGI of 16 µM. For `CCCCCCCCCCCC[N+]12CC[N+](CCN)(CC1)CC2`, the TGI was greater than 100 µM. In the case of `O=c1[nH]c(=O)n(C2CC(O)C(CO)O2)cc1OS(=O)(=O)C(F)(F)F` (stereo not given), the TGI was greater than 100 µM. For `O=C1C=C(Nc2ccc(Cl)cc2C(=O)c2ccccc2)c2ccccc2C1=O`, the TGI was greater than 100 µM. `CC[C@@H]1NC(C(=O)OC)Cc2c1[nH]c1ccccc21` (stereo not given in full) showed a TGI greater than 100 µM. Work on `O=C1C=C(c2c(O)ccc3ccccc23)c2cc(O)ccc2C1=O` yielded a TGI of 28.6 µM. In the case of `O=C(c1ccc([N+](=O)[O-])cc1[N+](=O)[O-])N(/N=C/C=C/c1ccccc1)c1nnc(-c2ccccc2)c(-c2ccccc2)n1`, the TGI was greater than 100 µM. With `Cc1cc(C)nc(NS(=O)(=O)c2ccc(Nc3c4ccccc4nc4c(C(=O)N5CCN(CCO)CC5)cccc34)cc2)n1` the TGI was greater than 100 µM. For `CC1=C(C(=O)Nc2ccccc2)C(c2ccc(Cl)c(Cl)c2)C(C(=O)Nc2ccccc2)=C(C)N1`, the TGI was 28.7 µM. `COc1ccc(NC(=O)CSc2nnc(-c3ccc(NC(C)=O)cc3)o2)cc1` gave a TGI of 27.7 µM. In the case of `CC(=O)N/C(=C\c1ccccc1/C=C(\NC(C)=O)c1nc2cc(C)c(C)cc2[nH]1)c1nc2cc(C)c(C)cc2[nH]1`, the TGI was 43 µM. Work on `CC12c3ccccc3C(OC=O)(c3ccccc31)C1(C)c3ccccc3C2(OC=O)c2ccccc21` yielded a TGI greater than 100 µM. `CCOC(=O)Cc1csc(Nc2ccccc2[N+](=O)[O-])n1` was tested, and the TGI was greater than 100 µM.

Each molecule was assayed on 786-0 renal (assay: NCI tumour cell line growth inhibition, 48 h).
`O=Cc1cc2c(cc1-c1cc3c(cc1C=O)OCO3)OCO2` was tested, and the TGI was greater than 100 µM. Molecule `C/C(=N\NC(N)=O)c1sc(-c2nc(C)c(/C(C)=N/NC(N)=O)s2)nc1C` has a TGI greater than 100 µM. `CN(C)CCNC(=O)Cc1ccccc1Nc1c(Cl)cccc1Cl` gave a TGI of 25.7 µM. `O/N=C1\CCCCC1C(NO)c1ccccc1` (stereo not given) showed a TGI greater than 100 µM. For `C[N+](C)(C)CC(=O)N/N=C(/Cc1cc(=O)oc2cc(O)ccc12)C(=O)Nc1ccc(Cl)cc1`, the TGI was greater than 100 µM. `COC(=O)c1c2c(c(C)[n+]([O-])c1C)C(=O)C(NCc1ccc(Br)cc1)=CC2=O` was tested, and the GI50 was 3.13 µM and the TGI was 11.2 µM. Work on `O=S(=O)(OI(OI(OS(=O)(=O)C(F)(F)F)c1ccccc1)c1ccccc1)C(F)(F)F` yielded a TGI greater than 100 µM. In the case of `COc1cc(OC)c(OC)cc1/C=N/NC(=O)N/N=C/c1cc(OC)c(OC)cc1OC`, the TGI was greater than 100 µM. `O=C(O)c1ccc(CNCc2ccccc2)cc1` gave a TGI greater than 100 µM. `FC(F)(F)c1ccc2nc(NCc3ccccc3)c(-c3ccccc3)nc2c1` was tested, and the TGI was 53.1 µM. `Cc1cc2c(cc1C)[n+](=O)cc(C(=O)C/C(=N/NC(=S)NN)C(=O)Nc1cccc(C(F)(F)F)c1)n2[O-]` gave a TGI greater than 100 µM. Molecule `COCOCCC#CCO` has a TGI greater than 100 µM. For `COc1cc(C[P+](c2ccccc2)(c2ccccc2)c2ccccc2)cc(OC)c1OC`, the TGI was greater than 100 µM. `CCCN(CCC)c1c([N+](=O)[O-])cc(C(=O)N(CC)CC)cc1[N+](=O)[O-]` was tested, and the TGI was greater than 100 µM. `COC(=N)c1csc(C2OC(CO)C(O)C2O)n1` (stereo not given) gave a TGI greater than 100 µM. `CN1Nc2ccccc2CC1=O` gave a TGI greater than 100 µM. For `CCOc1ccc(OCC(=O)O)c2c1CCCC2=O`, the TGI was greater than 100 µM. In the case of `Nc1c(S(=O)(=O)c2ccc(Cl)cc2)c2nc3ccccc3nc2n2ccnc12`, the TGI was greater than 100 µM. In the case of `CCCCCCCC(=O)OCC1OC(n2cc(F)c(=O)[nH]c2=O)C(N)C(OC(=O)CCCCCCC)C1O` (stereo not given), the TGI was 33.5 µM. `CCOc1ccc(NC(=O)CC2SC(=Nc3ccc(C)cc3C)NC2=O)cc1` (stereo not given) showed a TGI greater than 100 µM. Work on `Oc1oc(C(=C2N=c3ccccc3=N2)c2ccc(Cl)cc2)c(O)c1-c1ccc(Cl)cc1` yielded a TGI greater than 100 µM. Molecule `Cc1nc2c(N)ncnc2o1` has a TGI greater than 100 µM. `O=C1C/C(Br)=C\c2ccccc2-c2ccccc21` showed a TGI of 2.91 µM. For `CCCCCCCCCCCC[N+]12CC[N+](CCN)(CC1)CC2`, the TGI was greater than 100 µM. For `O=c1[nH]c(=O)n(C2CC(O)C(CO)O2)cc1OS(=O)(=O)C(F)(F)F` (stereo not given), the TGI was greater than 100 µM. With `O=C1C=C(Nc2ccc(Cl)cc2C(=O)c2ccccc2)c2ccccc2C1=O` the TGI was greater than 100 µM. Work on `CC[C@@H]1NC(C(=O)OC)Cc2c1[nH]c1ccccc21` (stereo not given in full) yielded a TGI greater than 100 µM. Molecule `O=C1C=C(c2c(O)ccc3ccccc23)c2cc(O)ccc2C1=O` has a TGI of 33.9 µM. With `O=C(c1ccc([N+](=O)[O-])cc1[N+](=O)[O-])N(/N=C/C=C/c1ccccc1)c1nnc(-c2ccccc2)c(-c2ccccc2)n1` the TGI was 56 µM. In the case of `Cc1cc(C)nc(NS(=O)(=O)c2ccc(Nc3c4ccccc4nc4c(C(=O)N5CCN(CCO)CC5)cccc34)cc2)n1`, the TGI was greater than 100 µM. In the case of `CC1=C(C(=O)Nc2ccccc2)C(c2ccc(Cl)c(Cl)c2)C(C(=O)Nc2ccccc2)=C(C)N1`, the TGI was 25.7 µM. Molecule `COc1ccc(NC(=O)CSc2nnc(-c3ccc(NC(C)=O)cc3)o2)cc1` has a TGI of 39.1 µM. `CC(=O)N/C(=C\c1ccccc1/C=C(\NC(C)=O)c1nc2cc(C)c(C)cc2[nH]1)c1nc2cc(C)c(C)cc2[nH]1` was tested, and the TGI was 46.6 µM. `CC12c3ccccc3C(OC=O)(c3ccccc31)C1(C)c3ccccc3C2(OC=O)c2ccccc21` was tested, and the TGI was greater than 100 µM. `CCOC(=O)Cc1csc(Nc2ccccc2[N+](=O)[O-])n1` gave a TGI greater than 100 µM.

Each molecule was assayed on SNB-19 CNS (assay: NCI tumour cell line growth inhibition, 48 h).
`O=Cc1cc2c(cc1-c1cc3c(cc1C=O)OCO3)OCO2` was tested, and the TGI was greater than 100 µM. `C/C(=N\NC(N)=O)c1sc(-c2nc(C)c(/C(C)=N/NC(N)=O)s2)nc1C` gave a TGI greater than 100 µM. `CN(C)CCNC(=O)Cc1ccccc1Nc1c(Cl)cccc1Cl` showed a TGI of 31.9 µM. Work on `O/N=C1\CCCCC1C(NO)c1ccccc1` (stereo not given) yielded a TGI greater than 100 µM. `C[N+](C)(C)CC(=O)N/N=C(/Cc1cc(=O)oc2cc(O)ccc12)C(=O)Nc1ccc(Cl)cc1` showed a TGI greater than 100 µM. Work on `O=S(=O)(OI(OI(OS(=O)(=O)C(F)(F)F)c1ccccc1)c1ccccc1)C(F)(F)F` yielded a TGI greater than 100 µM. For `COc1cc(OC)c(OC)cc1/C=N/NC(=O)N/N=C/c1cc(OC)c(OC)cc1OC`, the TGI was greater than 100 µM.
